“And” between values parts separate entries of the source, which are not always exact repeats. Identical values can stand only once.
Columns and labels:
[1] = tested on: metastatic patient tissues derived from a bladder tumor; experiment: Metastatic bladder tumor xenograft; type: in vivo, NMRI (nude) mice; conditions: both dose groups (4 mg/kg and 23.85 mg/kg once per week)
Text: (§1) These tumors display similar characteristics as the patient tumors, since they are passaged in mice at low numbers, to retain original characteristics.
To investigate metastatic tumors, NMRI (nude) mice were implanted with a metastatic patient tissues derived from a bladder tumor (determined via IHC analysis as CD138 strong positive).

[2] = tested on: CD138+ MOLP-8 cells; experiment: WST cell viability assay; type: cell-based
Experimental: CD138^+ MOLP-8 cells were seeded in flat bottom plates at 3000 cells/well. CD138^− BJAB control cells were seeded at 1000 cells/well. WST reagent (water-soluble tetrazolium salt, ROCHE) was added in order to measure cell viability according to the manufacturer's instruction (ROCHE). The reagent was incubated for 7.5 h on MOLP-8 cells and for 2 h on BJAB cells. The fraction of surviving cells was calculated based on the optical densities measured in a microplate reader using standard procedures.

[3] = tested on: pancreatic tumor tissue PAXF 736; experiment: Pancreas carcinoma xenograft; type: in vivo, NMRI mice; conditions: for T/C (%): day 52
Experimental: as §1
Tumor diameters have been measured two times a week. Tumor volumes were calculated according to the formula axbxb/2 where “a” is the longest axis and “b” the perpendicular axis thereto.
Tumor inhibition for a particular day (T/C in %) was calculated from the ratio of the median RTV (relative tumor volume) values of test versus control groups multiplied by 100%.

[4] = Half life in human plasma ex vivo; type: in vitro ADME
[5] = Plasma level of BT062 (PK ELISA), repeated single dose; type: in vivo, human; conditions: for effective Cmax (cycle 1) mean: 0-2 h post infusion; for effective Cmax (cycle 4) mean: day 64
Experimental: Theoretical Cmax was Calculated According to the Following Assumed Parameters: […]
The same evaluation was performed during treatment cycle 4. […] The amount of BT062 in the plasma is determined via a PK ELISA method described as follows:
The wells of a microtiter plate are first coated with anti-maytansinoid (anti-DM4) antibody overnight at 2-8° C. and after blocking with assay buffer (0.5% BSA/TBS) incubated on the next day with plasma samples. These are diluted beforehand at least 1:100 in assay buffer. […] After incubation, unbound material is removed by washing. […] Unbound secondary antibody is removed by another washing step. After this, TMB substrate solution is pipetted into all the wells. […] The color reaction is ended using a stop solution, which causes the color to change from blue to yellow. The final measurement is carried out with a photometer at a wavelength of 450 nm.
The relationship between concentration and optical density is evaluated using Magellan V6.6 software.

[6] = tested on: OPM-2 cells; experiment: FACS analysis of binding; type: cell-based; conditions: FIG. 6
Text: OPM-2 cells are plasma cell leukaemia cell lines showing highly expressing CD138. […] The cells were washed and CD138-bound antibody or conjugates were detected using a fluorescence-labelled secondary antibody in FACS analysis. The mean fluorescence measured in these experiments was plotted against the antibody concentration.

[7] = tested on: MOLP8 multiple myeloma cells; experiment: MOLP8 xenograft, combination BT062 and VELCADE; type: in vivo, mice
Text: The ACTIVITY RATING is another measurement for the effects of a combination. This rating is based on the Log10 cell kill
where (T-C) or tumor growth delay, is the median time in days required for the treatment group (T) and the control group (C) tumours, to reach a predetermined size (600 mm^3).

[8] = tested on: primary mammary tumor of a patient; experiment: Mammary carcinoma xenograft; type: in vivo, NMRI (nude) mice; conditions: for T/C: day 21
[9] = tested on: human derived breast cancer model with CD138 IHC score 1-2; experiment: Breast cancer model, CD138 IHC score 1-2; type: in vivo, NMRI nude mice; conditions: 1-4 mg/kg once weekly (FIG. 37)
Text: No difference in the treatment regimens was observed. The results are shown in terms of the effect on the mean relative tumor volume in the model relative to an intravenous administration of PBS. For the calculation of the median relative tumor volume on day, see FIG. 33.

[10] = tested on: human derived breast cancer model with CD138 IHC score 2-3; experiment: Breast cancer model, CD138 IHC score 2-3; type: in vivo, NMRI nude mice; conditions: 8 mg/kg once weekly
Text: The results are shown in terms of the effect on the mean relative tumor volume in the model relative to an intravenous administration of PBS. For the calculation of the median relative tumor volume on day, see FIG. 33.

[11] = tested on: Lung carcinoma; experiment: Lung carcinoma xenograft; type: in vivo, NMRI (nude) mice; conditions: both dose groups (4 mg/kg and 23.85 mg/kg once per week)
Experimental: as §1
NMRI (nude) mice are implanted with a Lung carcinoma (determined via IHC analysis as CD138 strong positive).
Tumor diameters are measured two times a week.

BT062
tumor response [1]: Complete remission
cytotoxicity after preincubation with molar excess of unconjugated nBT062 ([2]; FIG. 7 (D)): substantially blocked
cytotoxic activity ([2]; five days, FIG. 7): very similar
complete remission obtained, days after tumor implantation ([3]; 13.25 mg/kg): 35 days
mice alive after 52 days ([3]; 13.25 mg/kg): 8/8
T/C (%) ([3]; 13.25 mg/kg once weekly): 0.0%
complete remission obtained, days after tumor implantation ([3]; 23.85 mg/kg): 28 days
T/C (%) ([3]; 23.85 mg/kg once weekly): 0.0%
tumor regrowth in treatment free observation phase ([3]; both treatment groups): no tumor regrowth
side effects ([3]; mouse, in vivo): No side effects
plasma half life [4]: 14 days
percentage of theoretical Cmax (cycle 1) ([5]; 10 mg/m^2): 15%
effective Cmax (cycle 1) mean ([5]; 10 mg/m^2): 1110 ng/mL and 1100 ng/mL
percentage of theoretical Cmax (cycle 1) ([5]; 20 mg/m^2): 20%
percentage of theoretical Cmax (cycle 4) ([5]; 20 mg/m^2): 49%
effective Cmax (cycle 1) mean ([5]; 20 mg/m^2): 2900 ng/mL
effective Cmax (cycle 4) mean ([5]; 20 mg/m^2): 7060 ng/mL
percentage of theoretical Cmax (cycle 1) ([5]; 40 mg/m^2): 16%
percentage of theoretical Cmax (cycle 4) ([5]; 40 mg/m^2): 9%
effective Cmax (cycle 1) mean ([5]; 40 mg/m^2): 4310 ng/mL
effective Cmax (cycle 4) mean ([5]; 40 mg/m^2): 2510 ng/mL
percentage of theoretical Cmax (cycle 1) ([5]; 80 mg/m^2): 34%
percentage of theoretical Cmax (cycle 4) ([5]; 80 mg/m^2): 26%
effective Cmax (cycle 1) mean ([5]; 80 mg/m^2): 18800 ng/mL
effective Cmax (cycle 4) mean ([5]; 80 mg/m^2): 14200 ng/mL
percentage of theoretical Cmax (cycle 1) ([5]; 120 mg/m^2): 26.5%
effective Cmax (cycle 1) mean ([5]; 120 mg/m^2): 21400 ng/mL
percentage of theoretical Cmax (cycle 1) ([5]; 160 mg/m^2): 74.5%
percentage of theoretical Cmax (cycle 4) ([5]; 160 mg/m^2): 71%
effective Cmax (cycle 1) mean ([5]; 160 mg/m^2): 81200 ng/mL
effective Cmax (cycle 4) mean ([5]; 160 mg/m^2): 77400 ng/mL
percentage of theoretical Cmax (cycle 1) ([5]; 200 mg/m^2): 60%
effective Cmax (cycle 1) mean ([5]; 200 mg/m^2): 82000 ng/mL
binding characteristics [6]: very similar binding characteristics
(T − C) ([7]; BT062 100 ug/kg): 5.5 days
Regressions Complete ([7]; BT062 100 ug/kg): 0/6
Regressions Partial ([7]; BT062 100 ug/kg): 0/6
Result ([7]; BT062 100 ug/kg): Inactive
Tumor free survivors day 67 ([7]; BT062 100 ug/kg): 0/6
log cell kill ([7]; BT062 100 ug/kg): 0.5
T/C (%) ([7]; BT062 100 ug/kg, Day 1): 43%
(T − C) ([7]; BT062 200 ug/kg): 14.5 days
Regressions Complete ([7]; BT062 200 ug/kg): 0/6
Regressions Partial ([7]; BT062 200 ug/kg): 1/6
Result ([7]; BT062 200 ug/kg): Active
Tumor free survivors day 67 ([7]; BT062 200 ug/kg): 0/6
log cell kill ([7]; BT062 200 ug/kg): 1.3
T/C (%) ([7]; BT062 200 ug/kg, Day 1): 11%
(T − C) ([7]; BT062 400 ug/kg): 31.5 days
Regressions Complete ([7]; BT062 400 ug/kg): 2/6
Regressions Partial ([7]; BT062 400 ug/kg): 4/6
Result ([7]; BT062 400 ug/kg): highly active (A Log10 cell kill of higher than 2.8)
Tumor free survivors day 67 ([7]; BT062 400 ug/kg): 0/6
log cell kill ([7]; BT062 400 ug/kg): 2.8
T/C (%) ([7]; BT062 400 ug/kg, Day 1): 7%
(T − C) ([7]; last line: BT062 400 ug/kg): 36.5 days
Regressions Complete ([7]; last line: BT062 400 ug/kg): 0/6
Regressions Partial ([7]; last line: BT062 400 ug/kg): 6/6
Result ([7]; last line: BT062 400 ug/kg): highly active (A Log10 cell kill of higher than 2.8)
Tumor free survivors day 67 ([7]; last line: BT062 400 ug/kg): 0/6
log cell kill ([7]; last line: BT062 400 ug/kg): 3.2
T/C (%) ([7]; last line: BT062 400 ug/kg Day 1): 7%
mice with complete remission without tumor regrowth ([8]; 1 mg/kg once weekly): 3/7
mice with partial remission ([8]; 1 mg/kg once weekly): 2/7
tumor response ([8]; 1 mg/kg once weekly): tumor stasis
T/C ([8]; 13.25 mg/kg/4 mg/kg): 0.0
T/C ([8]; 23.85 mg/kg): 0.0
tumor response ([8]; 4 and 2 mg/kg once weekly (FIG. 35)): complete remission
tumor regrowth in treatment free observation period ([8]; 39 days after the last administration): no tumor regrowth
complete remission achieved after ([8]; FIG. 9): 21 days
T/C value ([8]; both treatment groups): below 10%
influence on body weight after each injection ([8]; mouse, in vivo): no influence on body weight
tumor response [9]: did not respond
tumor response [10]: complete remission
tumor response [11]: Complete remission
